Where two headings read alike, the source gives them in different places. Blank lines part the entries; values can stand above or below the molecule they belong to.
How the values were obtained:
[1] = target: HiBiT G1202R Variant 1 EML4-ALK (Homo sapiens, UniProt Q9UM73, G1202R); assay type: cell-based; conditions: Ba/F3 cells, 0.0003-2 μM, 4 hours; for DC50: read-out: BAF3 Cellular Degradation - HiBiT G1202R Variant 1 EML4-ALK: DC50; for Dmax: BaF3, maximal level of degradation, read-out: BAF3 Cellular Degradation - HiBiT G1202R Variant 1 EML4-ALK: Dmax
[2] = target: BAF3 Cells with Variant 3 EML4-ALK^WT (Homo sapiens, UniProt Q9UM73); conditions: read-out: BAF3 Cells with Variant 3 EML4-ALK^WT (IC50); 72 hours, CellTiter-Glo
[3] = target: BAF3 Cells with Variant 3 EML4-ALK^G1202R (Homo sapiens, UniProt Q9UM73, G1202R, cells depend on it); conditions: read-out: BAF3 Cells with Variant 3 EML4-ALK^G1202R (IC50)
proteins in MOLT4 cells = test: Quantitative mass spectrometry proteomics, relative protein abundance; assay type: cell-based; conditions: 1 μM, 5 hours, cut-offs 2-fold change, p value 0.001
Description: Relative fold-change (FC) abundance of proteins in MOLT4 cells treated with compound 1 (1 μM) for 5 hours was determined using quantitative mass spectrometry proteomics (protocol was published previously: Donovan et al., Cell 183:1714-1731 (2020)). Dotted lines signify a 2-fold change in protein levels and a p value of 0.001. […] FER is a cytoplasmic tyrosine kinase and its kinase function […] for STAT3 phosphorylation in tumor cell transformation and growth, but siRNA knock down of FER leads to decreased phospho-STAT3 and reduced STAT3 activation and inhibition of tumor growth in vivo (Lennartsson et al., J. Biol. Chem. 288:15736-15744 (2013)). STAT3 activation plays a key role in several cancers, including colon cancer (Gargalionis et al., Biomedicines 9:1016 (2021)). Therefore, inhibition of STAT3 signaling through depletion of FER using a targeted protein degrader is useful in the treatment of such cancers.

FER in HCT116 cells = target: T1, FER in HCT116 cells (Homo sapiens, UniProt P16591); test: Western blotting for FER degradation; assay type: cell-based; conditions: various concentrations, 24 hours
T1 construct: endogenous in cells; host or cells: HCT116
Description: HCT116 cells were treated with compound 1 or a FER kinase inhibitor E260 (Elkis et al., Nat. Commun. 8:940 (2017)) at various concentrations for 24 hours, along with DMSO (not shown) and ethanol as controls (FIG. 2). 18 μg of protein was loaded in each lane and Western blotting was performed for FER, CRBN, and loading control ACTIN.

Mouse oral PK study = assay type: in vivo, male C57BI/6 mice; conditions: for Vd: C57BI/6, mouse, iv, 2 mg/kg
Description: Standard oral PK studies were conducted using male C57BI/6 mice obtained from BioDuro Shanghai. […] Plasma concentrations of compound 1 reported at each of the 9 time points (5 min, 15 min, 30 min, 1 h, 2 h, 4 h, 6 h, 8 h and 24 h post dosing) are the average values from 3 test animals.

[4] = male, C57BI/6, 10 mg/kg, PO, single dose, plasma
[5] = male, C57BI/6, IV, single 2 mg/kg, plasma

HiBiT G1202R Variant 1 EML4-ALK, sequence (Q9UM73 with tags, fused parts or gaps G1202R): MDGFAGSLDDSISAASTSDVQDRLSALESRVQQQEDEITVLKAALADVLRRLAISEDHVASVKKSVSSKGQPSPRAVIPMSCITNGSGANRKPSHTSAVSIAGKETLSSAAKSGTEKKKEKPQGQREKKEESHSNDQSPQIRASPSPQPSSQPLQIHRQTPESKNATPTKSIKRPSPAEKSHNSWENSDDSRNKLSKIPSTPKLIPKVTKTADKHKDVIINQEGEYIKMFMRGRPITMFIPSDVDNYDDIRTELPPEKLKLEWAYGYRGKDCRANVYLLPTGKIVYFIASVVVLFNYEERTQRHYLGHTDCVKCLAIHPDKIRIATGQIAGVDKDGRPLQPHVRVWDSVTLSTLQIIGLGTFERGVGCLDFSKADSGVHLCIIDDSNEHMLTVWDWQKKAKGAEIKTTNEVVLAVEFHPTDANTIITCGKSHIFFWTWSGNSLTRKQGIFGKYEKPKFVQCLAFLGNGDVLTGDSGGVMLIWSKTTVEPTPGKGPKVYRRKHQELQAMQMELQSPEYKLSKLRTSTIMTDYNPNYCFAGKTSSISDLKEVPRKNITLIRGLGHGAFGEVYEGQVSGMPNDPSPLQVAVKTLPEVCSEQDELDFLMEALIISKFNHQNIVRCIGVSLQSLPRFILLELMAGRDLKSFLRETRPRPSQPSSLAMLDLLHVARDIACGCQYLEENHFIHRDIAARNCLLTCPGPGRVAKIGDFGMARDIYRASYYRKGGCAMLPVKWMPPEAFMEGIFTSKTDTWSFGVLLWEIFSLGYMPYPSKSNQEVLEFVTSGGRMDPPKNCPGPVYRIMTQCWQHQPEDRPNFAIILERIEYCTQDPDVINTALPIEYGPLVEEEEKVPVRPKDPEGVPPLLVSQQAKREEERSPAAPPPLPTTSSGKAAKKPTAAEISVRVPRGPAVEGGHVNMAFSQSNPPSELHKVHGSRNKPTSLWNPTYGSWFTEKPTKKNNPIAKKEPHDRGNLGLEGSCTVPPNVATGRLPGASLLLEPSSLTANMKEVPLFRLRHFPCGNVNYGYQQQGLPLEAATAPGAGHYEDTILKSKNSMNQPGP
HiBiT G1202R Variant 1 EML4-ALK, sequence (Q96SW2 whole entry partner): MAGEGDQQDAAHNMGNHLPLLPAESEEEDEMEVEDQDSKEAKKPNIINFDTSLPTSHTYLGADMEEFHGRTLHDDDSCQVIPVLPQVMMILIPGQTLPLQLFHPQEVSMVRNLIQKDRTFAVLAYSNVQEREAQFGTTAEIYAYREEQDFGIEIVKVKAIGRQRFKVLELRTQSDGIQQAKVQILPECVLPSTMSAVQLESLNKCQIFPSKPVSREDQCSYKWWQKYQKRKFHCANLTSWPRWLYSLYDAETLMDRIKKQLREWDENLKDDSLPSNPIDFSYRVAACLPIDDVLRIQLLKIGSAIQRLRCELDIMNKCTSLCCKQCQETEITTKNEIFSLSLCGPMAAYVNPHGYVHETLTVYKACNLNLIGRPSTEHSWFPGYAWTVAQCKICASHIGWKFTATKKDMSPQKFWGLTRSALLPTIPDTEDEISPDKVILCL
HiBiT G1202R Variant 1 EML4-ALK, sequence (Q3U1J4 whole entry partner): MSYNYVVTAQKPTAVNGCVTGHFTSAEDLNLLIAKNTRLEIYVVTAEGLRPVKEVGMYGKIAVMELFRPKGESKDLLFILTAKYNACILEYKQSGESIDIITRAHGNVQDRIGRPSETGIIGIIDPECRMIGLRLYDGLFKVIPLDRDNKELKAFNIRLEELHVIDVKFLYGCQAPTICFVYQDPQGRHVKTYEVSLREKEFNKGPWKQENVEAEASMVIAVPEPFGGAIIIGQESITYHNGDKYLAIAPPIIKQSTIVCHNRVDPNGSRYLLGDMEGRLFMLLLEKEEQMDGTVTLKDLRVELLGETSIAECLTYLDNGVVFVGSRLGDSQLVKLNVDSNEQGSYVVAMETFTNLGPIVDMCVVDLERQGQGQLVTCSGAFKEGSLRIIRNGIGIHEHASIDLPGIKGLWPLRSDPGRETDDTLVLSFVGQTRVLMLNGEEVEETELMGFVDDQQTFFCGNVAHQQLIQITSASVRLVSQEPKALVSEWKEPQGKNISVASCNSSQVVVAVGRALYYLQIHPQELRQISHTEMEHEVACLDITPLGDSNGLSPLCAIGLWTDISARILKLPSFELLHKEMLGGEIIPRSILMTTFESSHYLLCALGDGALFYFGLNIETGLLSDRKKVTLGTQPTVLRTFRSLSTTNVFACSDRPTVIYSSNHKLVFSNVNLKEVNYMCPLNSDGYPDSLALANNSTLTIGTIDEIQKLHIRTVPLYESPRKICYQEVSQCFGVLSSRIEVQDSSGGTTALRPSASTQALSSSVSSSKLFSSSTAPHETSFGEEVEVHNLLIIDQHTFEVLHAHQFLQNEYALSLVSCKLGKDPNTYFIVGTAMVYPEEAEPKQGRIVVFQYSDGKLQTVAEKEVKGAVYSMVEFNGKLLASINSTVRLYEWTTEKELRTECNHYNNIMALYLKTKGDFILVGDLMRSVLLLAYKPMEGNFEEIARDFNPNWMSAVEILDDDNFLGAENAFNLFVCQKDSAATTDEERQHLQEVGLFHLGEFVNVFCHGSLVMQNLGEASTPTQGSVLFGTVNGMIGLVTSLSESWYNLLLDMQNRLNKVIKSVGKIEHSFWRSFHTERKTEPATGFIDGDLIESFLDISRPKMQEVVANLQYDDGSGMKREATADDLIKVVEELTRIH
BAF3 Cells with Variant 3 EML4-ALK^G1202R, sequence (Q9UM73 whole entry G1202R): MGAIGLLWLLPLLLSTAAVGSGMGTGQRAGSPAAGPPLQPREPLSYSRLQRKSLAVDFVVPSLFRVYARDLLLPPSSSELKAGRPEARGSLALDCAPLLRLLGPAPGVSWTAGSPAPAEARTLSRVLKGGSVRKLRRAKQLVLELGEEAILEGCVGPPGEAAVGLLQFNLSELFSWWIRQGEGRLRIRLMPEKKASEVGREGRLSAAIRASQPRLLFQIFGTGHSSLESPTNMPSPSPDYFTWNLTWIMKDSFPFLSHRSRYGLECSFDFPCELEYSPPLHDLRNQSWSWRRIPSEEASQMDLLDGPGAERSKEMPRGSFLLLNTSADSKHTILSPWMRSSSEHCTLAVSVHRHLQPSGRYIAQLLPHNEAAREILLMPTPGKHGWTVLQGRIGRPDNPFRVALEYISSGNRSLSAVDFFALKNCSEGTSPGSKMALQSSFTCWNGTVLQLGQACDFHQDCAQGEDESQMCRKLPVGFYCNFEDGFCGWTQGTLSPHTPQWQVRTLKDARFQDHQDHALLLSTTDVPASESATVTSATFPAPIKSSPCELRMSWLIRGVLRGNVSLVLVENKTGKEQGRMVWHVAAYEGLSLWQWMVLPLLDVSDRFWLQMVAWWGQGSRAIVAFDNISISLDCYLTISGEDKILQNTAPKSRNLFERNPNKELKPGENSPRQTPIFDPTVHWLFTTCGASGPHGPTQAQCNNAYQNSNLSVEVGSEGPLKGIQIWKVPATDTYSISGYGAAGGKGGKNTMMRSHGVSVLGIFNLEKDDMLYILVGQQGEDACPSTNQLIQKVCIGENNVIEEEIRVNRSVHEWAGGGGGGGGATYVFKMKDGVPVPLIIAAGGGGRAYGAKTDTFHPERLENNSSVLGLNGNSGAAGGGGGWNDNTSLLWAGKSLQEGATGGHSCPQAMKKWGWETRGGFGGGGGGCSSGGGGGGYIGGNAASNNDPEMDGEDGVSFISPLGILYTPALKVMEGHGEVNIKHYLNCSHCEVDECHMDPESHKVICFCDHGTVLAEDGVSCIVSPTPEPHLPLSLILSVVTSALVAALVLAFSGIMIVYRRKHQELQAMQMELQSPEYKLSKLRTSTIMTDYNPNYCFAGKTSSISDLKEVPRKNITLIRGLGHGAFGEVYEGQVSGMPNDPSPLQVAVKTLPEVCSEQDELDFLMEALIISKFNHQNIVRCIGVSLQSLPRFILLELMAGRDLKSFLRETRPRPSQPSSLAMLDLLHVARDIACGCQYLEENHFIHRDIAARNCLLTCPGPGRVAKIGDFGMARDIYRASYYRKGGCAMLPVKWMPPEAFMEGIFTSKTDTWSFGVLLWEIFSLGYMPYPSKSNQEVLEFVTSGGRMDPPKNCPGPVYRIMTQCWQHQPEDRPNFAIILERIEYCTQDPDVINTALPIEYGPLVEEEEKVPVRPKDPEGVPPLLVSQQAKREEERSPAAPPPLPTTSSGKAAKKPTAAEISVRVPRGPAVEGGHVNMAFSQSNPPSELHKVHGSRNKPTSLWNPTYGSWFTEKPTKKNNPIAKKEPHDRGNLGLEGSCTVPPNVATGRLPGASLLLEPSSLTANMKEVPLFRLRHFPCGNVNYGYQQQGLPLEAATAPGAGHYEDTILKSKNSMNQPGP
BAF3 Cells with Variant 3 EML4-ALK^WT, sequence (Q9UM73 whole entry, stated change not applied): as the sequence (Q9UM73 whole entry G1202R) above, with R1202G counted along it
T1 sequence (P16591 whole entry): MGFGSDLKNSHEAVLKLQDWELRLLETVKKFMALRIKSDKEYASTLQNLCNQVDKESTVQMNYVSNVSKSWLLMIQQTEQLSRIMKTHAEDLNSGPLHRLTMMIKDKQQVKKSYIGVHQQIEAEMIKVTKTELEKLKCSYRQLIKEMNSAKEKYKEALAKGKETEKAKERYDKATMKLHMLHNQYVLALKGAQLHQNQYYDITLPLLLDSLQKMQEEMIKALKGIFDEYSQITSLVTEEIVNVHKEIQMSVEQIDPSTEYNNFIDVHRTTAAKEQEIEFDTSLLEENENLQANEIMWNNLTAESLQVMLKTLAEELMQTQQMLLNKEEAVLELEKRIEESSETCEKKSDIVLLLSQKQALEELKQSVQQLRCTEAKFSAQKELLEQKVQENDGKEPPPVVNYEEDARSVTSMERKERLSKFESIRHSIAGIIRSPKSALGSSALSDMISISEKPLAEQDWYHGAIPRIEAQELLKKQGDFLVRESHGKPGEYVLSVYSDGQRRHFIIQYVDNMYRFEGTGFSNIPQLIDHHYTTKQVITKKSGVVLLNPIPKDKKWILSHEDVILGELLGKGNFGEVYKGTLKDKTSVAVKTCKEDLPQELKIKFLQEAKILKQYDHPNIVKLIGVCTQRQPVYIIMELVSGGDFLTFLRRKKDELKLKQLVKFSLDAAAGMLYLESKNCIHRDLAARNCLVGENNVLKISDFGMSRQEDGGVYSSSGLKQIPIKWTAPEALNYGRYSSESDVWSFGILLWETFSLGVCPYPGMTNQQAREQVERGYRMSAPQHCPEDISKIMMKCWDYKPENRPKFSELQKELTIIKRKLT

DC50 [1]: 71 nM
Dmax [1]: 68%
SMILES: CNC(=O)c1ccccc1Nc1nc(Nc2cc(C)c(C3CCN(CC4CN(c5ccc6c(c5)C(=O)N(C5CCC(=O)NC5=O)C6=O)C4)CC3)cc2OC(C)C)ncc1C(F)(F)F (stereo not drawn) [Compound 18, 2-{[2-({4-[1-({1-[2-(2,6-dioxopiperidin-3-yl)-1,3-dioxo-2,3-dihydro-1H-isoindol-5-yl]azetidin-3-yl}methyl)piperidin-4-yl]-5-methyl-2-(propan-2-yloxy)phenyl}amino)-5-(trifluoromethyl)pyrimidin-4-yl]amino}-N-methylbenzamide]

DC50 [1]: 6 nM
Dmax [1]: 82%
SMILES: CCc1cc2c(cc1C#CCCCN1CCC(c3ccc4c(c3)CN(C3CCC(=O)NC3=O)C4=O)CC1)C(C)(C)c1[nH]c3cc(C#N)ccc3c1C2=O (stereo not drawn) [Compound 22]

DC50 [1]: 79 nM
SMILES: COc1cc(C2CCN(CC3CC4(C3)CN(c3ccc5c(c3)C(=O)N(C3CCC(=O)NC3=O)C5=O)C4)CC2)c(C)cc1Nc1ncc(Cl)c(Nc2ccccc2S(=O)(=O)C(C)C)n1 (stereo not drawn) [Compound 16, 5-(6-((4-(4-((5-chloro-4-((2-(isopropylsulfonyl)phenyl)amino)pyrimidin-2-yl)amino)-5-methoxy-2-methylphenyl)piperidin-1-yl)methyl)-2-azaspiro[3.3]heptan-2-yl)-2-(2,6-dioxopiperidin-3-yl)isoindoline-1,3-dione]

DC50 [1]: 23 nM
Dmax [1]: 77%
SMILES: CNC(=O)c1ccccc1Nc1nc(Nc2cc(C)c(C3CCN(CC4CCN(c5ccc6c(c5)C(=O)N(C5CCC(=O)NC5=O)C6=O)CC4)CC3)cc2OC)ncc1C(F)(F)F (stereo not drawn) [Compound 17, 2-{[2-({4-[1-({1-[2-(2,6-dioxopiperidin-3-yl)-1,3-dioxo-2,3-dihydro-1H-isoindol-5-yl]piperidin-4-yl}methyl)piperidin-4-yl]-2-methoxy-5-methylphenyl}amino)-5-(trifluoromethyl)pyrimidin-4-yl]amino}-N-methylbenzamide]

DC50 [1]: 95 nM
Dmax [1]: 63%
SMILES: CCc1cc2c(cc1N1CC(CN3CCC(c4ccc5c(c4)CN(C4CCC(=O)NC4=O)C5=O)CC3)C1)C(C)(C)c1[nH]c3cc(C#N)ccc3c1C2=O (stereo not drawn) [Compound 23]

DC50 [1]: 114 nM
Dmax [1]: 55%
SMILES: CNC(=O)c1ccccc1Nc1nc(Nc2cc(C)c(C3CCN(CC4CCN(c5ccc6c(c5)C(=O)N(C5CCC(=O)NC5=O)C6=O)CC4)CC3)cc2OC(C)C)ncc1C(F)(F)F (stereo not drawn) [Compound 19, 2-{[2-({4-[1-({1-[2-(2,6-dioxopiperidin-3-yl)-1,3-dioxo-2,3-dihydro-1H-isoindol-5-yl]piperidin-4-yl}methyl)piperidin-4-yl]-5-methyl-2-(propan-2-yloxy)phenyl}amino)-5-(trifluoromethyl)pyrimidin-4-yl]amino}-N-methylbenzamide]

Further lines, the molecule ahead of its results:

SMILES: COc1cc(C2CCN(CCC3CN(c4ccc5c(c4)C(=O)N(C4CCC(=O)NC4=O)C5=O)C3)CC2)c(C)cc1Nc1ncc(Cl)c(Nc2ccccc2S(=O)(=O)C(C)C)n1 (stereo not drawn) [Compound 2]
DC50 [1]: 10 nM
Dmax [1]: 76%

SMILES: COc1cc(C2CCN(C[C@@H]3CCN(c4ccc5c(c4)C(=O)N(C4CCC(=O)NC4=O)C5=O)C3)CC2)c(C)cc1Nc1ncc(Cl)c(Nc2ccccc2S(=O)(=O)C(C)C)n1 (stereo partly drawn) [Compound 9]
DC50 [1]: 41 nM
Dmax [1]: 86%

SMILES: COc1cc(C2CCN(C[C@H]3CCN(c4ccc5c(c4)C(=O)N(C4CCC(=O)NC4=O)C5=O)C3)CC2)c(C)cc1Nc1ncc(Cl)c(Nc2ccccc2S(=O)(=O)C(C)C)n1 (stereo partly drawn) [Compound 8, 5-[(3R)-3-[(4-{4-[(5-chloro-4-{[2-(propane-2-sulfonyl)phenyl]amino}pyrimidin-2-yl)amino]-5-methoxy-2-methylphenyl}piperidin-1-yl)methyl]pyrrolidin-1-yl]-2-(2,6-dioxopiperidin-3-yl)-2,3-dihydro-1H-isoindole-1,3-dione]
DC50 [1]: 124 nM

SMILES: Cc1cc(Nc2ncc(Cl)c(Nc3ccccc3S(=O)(=O)C(C)C)n2)c(OC(C)C)cc1C1CCNCC1 [Ceritinib]
GI50 [2]: 85 nM
GI50 ([3]; 72 hours, CellTiter-Glo): 357 nM

SMILES: COc1cc(CN2CCC(O)(c3ccc4c(c3)CN(C3CCC(=O)NC3=O)C4=O)CC2)c(C)cc1Nc1ncc(Cl)c(Nc2ccccc2S(=O)(=O)C(C)C)n1 (stereo not drawn) [Compound 26, 3-(5-(1-(4-((5-chloro-4-((2-(isopropylsulfonyl)phenyl)amino)pyrimidin-2-yl)amino)-5-methoxy-2-methylbenzyl)-4-hydroxypiperidin-4-yl)-1-oxoisoindolin-2-yl)piperidine-2,6-dione]
DC50 [1]: 147 nM
Dmax [1]: 62%

SMILES: COc1cc(N2CCC(N3CCN(C)CC3)CC2)ccc1Nc1ncc(Cl)c(Nc2ccccc2P(C)(C)=O)n1 [Brigatinib]
GI50 ([3]; baf3 cells with variant 3 eml4-alk^g1202r): 183 nM

SMILES: COc1cc(C2CCN(CC3CN(c4ccc5c(c4)C(=O)N(C4CCC(=O)NC4=O)C5=O)C3)CC2)c(C)cc1Nc1ncc(Cl)c(Nc2ccccc2S(=O)(=O)C(C)C)n1 (stereo not drawn) [Compound 1, 5-{3-[(4-{4-[(5-chloro-4-{[2-(propane-2-sulfonyl)phenyl]amino}pyrimidin-2-yl)amino]-5-methoxy-2-methylphenyl}piperidin-1-yl)methyl]azetidin-1-yl}-2-(2,6-dioxopiperidin-3-yl)-2,3-dihydro-1H-isoindole-1,3-dione]
Relative fold-change abundance of proteins (downregulated proteins) (proteins in MOLT4 cells): downregulated PLK4, CAMK1D, FAK2, RSK1, ACK1 and FER
Downregulation of FER (Western blot) (FER in HCT116 cells): significantly downregulated FER
AUCExtr (Mouse oral PK study; IV, single 2 mg/kg, plasma): 1.65%
F (Mouse oral PK study; PO versus IV): 28.0%
AUCExtr (Mouse oral PK study; PO, single dose, plasma): 5.08%
AUCInf/D (Mouse oral PK study; PO, single dose, plasma): 0.605 hr*kg*nM/nmol
In vivo metabolic stability, plasma exposure and clearance (in words) (Mouse oral PK study; conclusion from Table 3): good in vivo metabolic stability, plasma exposure, and slow clearance rate
AUC(0-inf) (Mouse oral PK study; [4]): 7.08 µM·h
AUC(0-t) (Mouse oral PK study; [4]): 6.73 µM·h
Cmax (Mouse oral PK study; [4]): 658 nM
MRT inf (Mouse oral PK study; [4]): 8.51 h
Tmax (Mouse oral PK study; [4]): 1.67 h
half-life (Mouse oral PK study; [4]): 5.37 h
AUC(0-inf) (Mouse oral PK study; [5]): 5.05 µM·h
AUC(0-t) (Mouse oral PK study; [5]): 4.97 µM·h
C0 (Mouse oral PK study; [5]): 2340 nM
MRT inf (Mouse oral PK study; [5]): 4.95 h
clearance (Mouse oral PK study; [5]): 7.73 mL/min/kg
half-life (Mouse oral PK study; [5]): 4.41 h
Vd (Mouse oral PK study; male, plasma, IV, single 2 mg/kg, plasma, read-out: Vss): 2.29 L/kg
Vd (Mouse oral PK study; male, plasma, IV, single 2 mg/kg, plasma, read-out: Vz): 2.95 L/kg

From patent US20240336643A1, “BIFUNCTIONAL COMPOUNDS THAT DEGRADE ALK AND USES THEREOF” (DANA-FARBER CANCER INSTITUTE, INC., priority 2021, published 2024)
